# Assay results published in US9725416B2, “Ethynyl derivatives” (Hoffmann-La Roche Inc., priority 2014, dated 2017).
# Target: T1, human mGlu4 receptor (Homo sapiens, UniProt Q14833)
# T1 construct: expressed in transfected cells; host or cells: HEK-293 (monoclonal, stably transfected)
# Test: Ca2+ mobilization in vitro assay on recombinant human mGlu4 expressed in HEK293 cells (mGlu4 PAM)
# Type: cell-based
# Details: for Emax: HEK293, maximal response in % of the maximal stimulatory effect obtained with saturating concentrations of L-AP4, read-out: Eff. (%); for EC50: HEK-293 cells, Ca2+ mobilization, L-AP4 added at EC20
# Method: Determination of EC50 Values Using a Ca2+ mobilization in vitro Assay on Recombinant Human mGlu4 Expressed in HEK293 cells:
# A monoclonal HEK-293 cell line stably transfected with a cDNA encoding for the human mGlu4 receptor was generated; for the work with mGlu4 Positive Allosteric Modulators (PAMs), a cell line with low receptor expression levels and low constitutive receptor activity was selected to allow the differentiation of agonistic versus PAM activity. Cells were cultured according to standard protocols (Freshney, 2000) in Dulbecco's Modified Eagle Medium with high glucose supplemented with 1 mM glutamine, 10% (vol/vol) heat-inactivated bovine calf serum, Penicillin/Streptomycin, 50 μg/ml hygromycin and 15 μg/ml blasticidin (all cell culture reagents and antibiotics from Invitrogen, Basel, Switzerland).
# About 24 hrs before an experiment, 5×10^4 cells/well were seeded in poly-D-lysine coated, black/clear-bottomed 96-well plates. The cells were loaded with 2.5 μM Fluo-4AM in loading buffer (1×HBSS, 20 mM HEPES) for 1 hr at 37° C. and washed five times with loading buffer. The cells were transferred into a Functional Drug Screening System 7000 (Hamamatsu, Paris, France), and 11 half logarithmic serial dilutions of test compound at 37° C. were added and the cells were incubated for 10-30 min. with on-line recording of fluorescence. Following this pre-incubation step, the agonist (2S)-2-amino-4-phosphonobutanoic acid (L-AP4) was added to the cells at a concentration corresponding to EC20 with on-line recording of fluorescence; in order to account for day-to-day variations in the responsiveness of cells, the EC20 of L-AP4 was determined immediately ahead of each experiment by recording of a full dose-response curve of L-AP4.
# Responses were measured as peak increase in fluorescence minus basal (i.e. fluorescence without addition of L-AP4), normalized to the maximal stimulatory effect obtained with saturating concentrations of L-AP4. Graphs were plotted with the % maximal stimulatory using XLfit, a curve fitting program that iteratively plots the data using Levenburg Marquardt algorithm. The single site competition analysis equation used was y=A+((B−A)/(1+((x/C)D))), where y is the % maximal stimulatory effect, A is the minimum y, B is the maximum y, C is the EC50, x is the log 10 of the concentration of the competing compound and D is the slope of the curve (the Hill Coefficient). From these curves the EC50 (drug concentration at which 50% of the maximal receptor activation was achieved), the Hill coefficient as well as the maximal response in % of the maximal stimulatory effect obtained with saturating concentrations of L-AP4 were calculated (see FIG. 1).
# A depression of the signal observed after addition of the EC20 concentration of L-AP4was indicative of an inhibitory activity of the test compound.
# T1 sequence (Q14833 33-912): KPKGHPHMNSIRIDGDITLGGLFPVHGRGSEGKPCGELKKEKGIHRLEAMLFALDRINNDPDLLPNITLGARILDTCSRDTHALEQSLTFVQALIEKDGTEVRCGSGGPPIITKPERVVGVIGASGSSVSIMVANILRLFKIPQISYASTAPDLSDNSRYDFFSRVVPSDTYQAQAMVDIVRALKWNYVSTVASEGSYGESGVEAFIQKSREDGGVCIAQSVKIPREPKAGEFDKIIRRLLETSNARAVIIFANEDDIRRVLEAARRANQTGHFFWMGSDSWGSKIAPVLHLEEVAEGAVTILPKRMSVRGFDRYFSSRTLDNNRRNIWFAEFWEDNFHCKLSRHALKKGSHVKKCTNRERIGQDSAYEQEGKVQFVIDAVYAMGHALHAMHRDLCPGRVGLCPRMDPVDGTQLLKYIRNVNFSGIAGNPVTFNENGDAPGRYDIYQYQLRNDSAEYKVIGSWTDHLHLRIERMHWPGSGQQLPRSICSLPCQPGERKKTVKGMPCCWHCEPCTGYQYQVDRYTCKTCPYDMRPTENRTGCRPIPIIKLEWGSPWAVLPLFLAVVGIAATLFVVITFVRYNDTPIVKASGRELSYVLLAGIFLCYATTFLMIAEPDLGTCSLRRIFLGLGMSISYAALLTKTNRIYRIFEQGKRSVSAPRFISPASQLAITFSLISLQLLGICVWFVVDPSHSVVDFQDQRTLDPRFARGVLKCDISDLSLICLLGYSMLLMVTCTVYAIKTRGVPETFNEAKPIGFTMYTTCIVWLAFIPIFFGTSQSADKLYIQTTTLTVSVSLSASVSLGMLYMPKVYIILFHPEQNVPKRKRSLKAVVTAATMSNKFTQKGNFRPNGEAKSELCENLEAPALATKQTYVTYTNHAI
Structure (SMILES),Emax [%],EC50 [nM]
"Cc1ccc([C@]2(C)CC(=O)N(c3c(F)cc(C#Cc4ccccc4)cc3F)C(=O)N2C)cn1 [Example 54, (6S)-3-[2,6-Difluoro-4-(2-phenylethynyl)phenyl]-1,6-dimethyl-6-(6-methyl-3-pyridyl)hexahydropyrimidine-2,4-dione]",98,70
"CN1C(=O)N(c2c(F)cc(C#Cc3cccnc3)cc2F)C(=O)C[C@@]1(C)c1ccnc(Cl)c1 [Example 64, (6S)-6-(2-Chloro-4-pyridyl)-3-[2,6-difluoro-4-[2-(3-pyridyl)ethynyl]phenyl]-1,6-dimethyl-hexahydropyrimidine-2,4-dione]",119,124
"CN1C(=O)N(c2c(F)cc(C#Cc3ccccc3)cc2F)C(=O)[C@H]2CCC[C@H]21 (racemic) [Example 11, (4aRS,7aSR)-3-[2,6-Difluoro-4-(2-phenylethynyl)phenyl]-1-methyl-5,6,7,7a-tetrahydro-4aH-cyclopenta[d]pyrimidine-2,4-dione]",131,163
"CCN1C(=O)N(c2c(F)cc(C#Cc3ccccc3)cc2F)C(=O)C[C@@]1(C)c1cccnc1 [Example 52, (6S)-3-[2,6-Difluoro-4-(2-phenylethynyl)phenyl]-1-ethyl-6-methyl-6-(3-pyridyl)hexahydropyrimidine-2,4-dione]",99,48
"CN1C(=O)N(c2c(F)cc(C#Cc3cccnc3)cc2Cl)C(=O)CC1(C)c1ccccc1 (racemic) [Example 34, (6RS)-3-[2-Chloro-6-fluoro-4-[2-(3-pyridyl)ethynyl]phenyl]-1,6-dimethyl-6-phenyl-hexahydropyrimidine-2,4-dione]",150,135
"CN1C(=O)N(c2c(F)cc(C#Cc3ccccc3)cc2F)C(=O)CC1(C)C [Example 1, 3-[2,6-Difluoro-4-(2-phenylethynyl)phenyl]-1,6,6-trimethyl-hexahydropyrimidine-2,4-dione]",191,92
"CN1C(=O)N(c2c(F)cc(C#Cc3ccccc3)cc2F)C(=O)C[C@@]1(C)c1cccnc1 [Example 49, (6S)-3-[2,6-Difluoro-4-(2-phenylethynyl)phenyl]-1,6-dimethyl-6-(3-pyridyl)hexahydropyrimidine-2,4-dione]",98,37
"CCC1(CC)CC(=O)N(c2c(F)cc(C#Cc3ccccc3)cc2F)C(=O)N1C [Example 22, 3-[2,6-Difluoro-4-(2-phenylethynyl)phenyl]-6,6-diethyl-1-methyl-hexahydropyrimidine-2,4-dione]",137,73
"CC(C)n1cc([C@]2(C)CC(=O)N(c3c(F)cc(C#Cc4ccccc4)cc3F)C(=O)N2C)ccc1=O [Example 68, (6S)-3-[2,6-Difluoro-4-(2-phenylethynyl)phenyl]-6-(1-isopropyl-6-oxo-3-pyridyl)-1,6-dimethyl-hexahydropyrimidine-2,4-dione]",113,44
"CN1C(=O)N(c2c(F)cc(C#Cc3ccccc3)cc2F)C(=O)C[C@@]1(C)c1ccncn1 [Example 55, (6S)-3-[2,6-Difluoro-4-(2-phenylethynyl)phenyl]-1,6-dimethyl-6-pyrimidin-4-yl-hexahydropyrimidine-2,4-dione]",106,44
"COc1cccc(C2(C)CC(=O)N(c3c(F)cc(C#Cc4cccnc4)cc3F)C(=O)N2C)c1 (racemic) [Example 42, (6RS)-3-[2,6-Difluoro-4-[2-(3-pyridyl)ethynyl]phenyl]-6-(3-methoxyphenyl)-1,6-dimethyl-hexahydropyrimidine-2,4-dione]",116,165
"COc1ccc([C@]2(C)CC(=O)N(c3c(F)cc(C#Cc4ccccc4)cc3F)C(=O)N2C)nn1 [Example 81, (6S)-3-[2,6-Difluoro-4-(2-phenylethynyl)phenyl]-6-(6-methoxypyridazin-3-yl)-1,6-dimethyl-hexahydropyrimidine-2,4-dione]",100,28
"CN1C(=O)N(c2c(F)cc(C#Cc3ccccc3)cc2F)C(=O)C[C@@]1(C)c1cncc(F)c1 [Example 59, (6S)-3-[2,6-Difluoro-4-(2-phenylethynyl)phenyl]-6-(5-fluoro-3-pyridyl)-1,6-dimethyl-hexahydropyrimidine-2,4-dione]",89,75
"CN1C(=O)N(c2ncc(C#Cc3ccccc3)cc2F)C(=O)C[C@@]1(C)c1cccnc1 [Example 50, (6S)-3-[3-Fluoro-5-(2-phenylethynyl)-2-pyridyl]-1,6-dimethyl-6-(3-pyridyl)hexahydropyrimidine-2,4-dione]",164,104
"CN1C(=O)N(c2c(F)cc(C#Cc3cccnc3)cc2F)C(=O)CC1(C)c1ccccc1 (racemic) [Example 15, (6RS)-3-[2,6-Difluoro-4-[2-(3-pyridyl)ethynyl]phenyl]-1,6-dimethyl-6-phenyl-hexahydropyrimidine-2,4-dione]",134,100
"CC12CC(=O)N(c3c(F)cc(C#Cc4ccccc4)cc3F)C(=O)N1CCNC2=O (racemic) [Example 25, (9aRS)-7-[2,6-Difluoro-4-(2-phenylethynyl)phenyl]-9a-methyl-2,3,4,9-tetrahydropyrazino[1,2-c]pyrimidine-1,6,8-trione]",105,83
"CC12CC(=O)N(c3c(F)cc(C#Cc4ccccc4)cc3F)C(=O)N1CCN(Cc1ccccc1)C2=O (racemic) [Example 37, (9aRS)-2-Benzyl-7-[2,6-difluoro-4-(2-phenylethynyl)phenyl]-9a-methyl-4,9-dihydro-3H-pyrazino[1,2-c]pyrimidine-1,6,8-trione]",97,131
"CN1C(=O)N(c2c(F)cc(C#Cc3ccccc3)cc2F)C(=O)C[C@@]1(C)c1ccncc1 [Example 78, (6S)-3-[2,6-Difluoro-4-(2-phenylethynyl)phenyl]-1,6-dimethyl-6-(4-pyridyl)hexahydropyrimidine-2,4-dione]",111,68
"CN1C(=O)N(c2c(F)cc(C#Cc3cccnc3)cc2Cl)C(=O)CC1(C)c1cccnc1 (racemic) [Example 33, (6RS)-3-[2-Chloro-6-fluoro-4-[2-(3-pyridyl)ethynyl]phenyl]-1,6-dimethyl-6-(3-pyridyl)hexahydropyrimidine-2,4-dione]",142,171
"CN1C(=O)N(c2ccc(C#Cc3ccccc3)cc2Cl)C(=O)CC1(C)c1cccnc1 (racemic) [Example 47, (6RS)-3-[2-Chloro-4-(2-phenylethynyl)phenyl]-1,6-dimethyl-6-(3-pyridyl)hexahydropyrimidine-2,4-dione]",121,132
"CN1C(=O)N(c2c(F)cc(C#Cc3cccnc3)cc2F)C(=O)C[C@@]1(C)c1cccnc1 [Example 53, (6S)-3-[2,6-Difluoro-4-[2-(3-pyridyl)ethynyl]phenyl]-1,6-dimethyl-6-(3-pyridyl)hexahydropyrimidine-2,4-dione]",110,80
"CCN1C(=O)N(c2c(F)cc(C#Cc3cccnc3)cc2Cl)C(=O)CC1(C)C [Example 10, 3-[2-Chloro-6-fluoro-4-[2-(3-pyridyl)ethynyl]phenyl]-1-ethyl-6,6-dimethyl-hexahydropyrimidine-2,4-dione]",169,256
